# Values quoted from earlier work in US20210115493A1, “METHODS FOR DETERMINING A DRUG DOSING REGIMEN” (Clear Creek Bio, Inc., priority 2019, published 2021).
# Assays:
# solid tumor malignancies = conditions: administered over a 5-day period followed by a 3-week gap, or once per week for three weeks followed by a 1-week gap
smiles,measurement,setting,value
"Cc1c(-c2ccc(-c3ccccc3F)cc2)nc2ccc(F)cc2c1C(=O)O [brequinar, 6-fluoro-2-(2′-fluoro-1,1′biphenyl-4-yl)-3-methyl-4-quinoline carboxylic acid]",adverse effects of daily administration of high doses,mouse model of AML,"weight loss, anemia, and thrombocytopenia"
same,efficacy in treatment of solid tumor malignancies,solid tumor malignancies,ineffective
